In one test the target is human FLAP (Homo sapiens (Human), UniProt P20292). In words: FLAP binding assay (HTRF). The note with it: human FLAP-containing membranes, HTRF format; average of two assay plates, duplicates; read-out: FLAP Binding wild type HTRF Ki. Summed up: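 Binding values are averages from two separate assay plates, with each sample run in duplicate per plate. Data are expressed as an HTRF ratio.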
A general note: In TR-FRET formats the signal depends on donor and acceptor labels being close together.

The subject of test [1] is leukotriene pathway in human whole blood (LTB4 levels). In words: Human whole blood assay (LTB4). It is filed as cell-based. To be noted: human whole blood diluted 1:1 in RPMI, stimulated with calcium ionophore A23187; single replicate. In a few lines: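 Compounds are pre-incubated 15 min at 37° Celsius in RPMI-diluted (1:1) heparinised whole blood before a 30 min A23187 stimulus (7 μg/mL). Plasma LTB4 is read by immunoassay kit, with IC50 calculated from a 4-parameter equation.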

Structures can show the parent of a compound that is named as a salt.

Data on 25 compounds can be found in patent US9073876B2, “Flap modulators” (JANSSEN PHARMACEUTICA NV, priority 2013, dated 2015).

human FLAP, sequence (P20292 whole entry): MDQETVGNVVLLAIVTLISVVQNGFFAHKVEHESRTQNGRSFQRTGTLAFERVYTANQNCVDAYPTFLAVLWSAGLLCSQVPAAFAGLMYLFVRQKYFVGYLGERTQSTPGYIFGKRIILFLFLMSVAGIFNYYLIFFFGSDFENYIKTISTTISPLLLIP

A word on the Ki: it is the dissociation constant of the complex between target and ligand, obtained from inhibition or displacement. Broadly, the IC50 is the concentration that inhibits the measured activity by half. Turning to `Cc1cc(N)nc(Oc2c(C3CCC3)ccc(-c3cnc(N)cn3)c2F)n1` [Example 86, 2-[3-(5-Aminopyrazin-2-yl)-6-cyclobutyl-2-fluorophenoxy]-6-methylpyrimidin-4-amine], the Ki at human FLAP was 5 nM. Moreover, the IC50 in test [1] turned out to be 35.1 nM.
As to `Nc1cnc(-c2ccc(C3CCC3)c(OCC3CC3)c2F)cn1` [Example 72, 5-[4-Cyclobutyl-3-(cyclopropylmethoxy)-2-fluorophenyl]pyrazin-2-amine], at human FLAP, the Ki was 18 nM. Also, the IC50 in test [1] was 737 nM.
As to `Nc1cnc(-c2ccc(C3CCC3)c(Oc3ccnc(Oc4c(C5CCC5)ccc(-c5cnc(N)cn5)c4F)n3)c2F)cn1` [Example 224, 5,5′-((pyrimidine-2,4-diylbis(oxy))bis(4-cyclobutyl-2-fluoro-3,1-phenylene))bis(pyrazin-2-amine)], the Ki on human FLAP came to 23.2 nM. Also, in test [1], the IC50 was 287 nM.
In the case of `Nc1cnc(-c2ccc(C3CCC3)c(OCC(O)Cn3nccn3)c2F)cn1` (racemic) [Example 64, racemic 1-(3-(5-Aminopyrazin-2-yl)-6-cyclobutyl-2-fluorophenoxy)-3-(2H-1,2,3-triazol-2-yl)propan-2-ol], the Ki on human FLAP amounted to 86 nM. The IC50 in test [1] turned out to be 275 nM.
As to `N#Cc1cc(Oc2c(C3CCC3)ccc(-c3cnc(N)cn3)c2F)ccn1` [Example 109, 4-[3-(5-Aminopyrazin-2-yl)-6-cyclobutyl-2-fluorophenoxy]pyridine-2-carbonitrile], on human FLAP, the Ki stood at 8.9 nM. Moreover, the IC50 in test [1] was found to be 308 nM.
Turning to `COC(=O)c1ccnc(Oc2c(C3CCC3)ccc(-c3cnc(N)cn3)c2F)n1` [Example 151, methyl 2-[3-(5-aminopyrazin-2-yl)-6-cyclobutyl-2-fluorophenoxy]pyrimidine-4-carboxylate], at human FLAP, the Ki turned out to be 8.9 nM. For the same compound, the IC50 in test [1] came out at 75.4 nM.
For `Nc1cnc(-c2ccc(C3CCC3)c(Oc3cccc(C(F)(F)F)n3)c2F)cn1` [Example 102, 5-(4-Cyclobutyl-2-fluoro-3-{[6-(trifluoromethyl)pyridin-2-yl]oxy}phenyl)pyrazin-2-amine], in that order: 2 nM and 103 nM.
On to `Nc1cnc(-c2ccc(C3CCC3)c(Oc3cc(C4CC4)ncn3)c2F)cn1` [Example 141, 5-{4-Cyclobutyl-3-[(6-cyclopropylpyrimidin-4-yl)oxy]-2-fluorophenyl}pyrazin-2-amine], for which the Ki on human FLAP stood at 5 nM. Besides, in test [1], the IC50 was found to be 58.6 nM.
For `Nc1cnc(-c2ccc(C3CCC3)c(Oc3ccc(C(=O)O)cn3)c2F)cn1` [Example 154, 6-[3-(5-Aminopyrazin-2-yl)-6-cyclobutyl-2-fluorophenoxy]pyridine-3-carboxylic acid], in that order: 12.5 nM and over 10000 nM.
Consider `N#Cc1ncccc1Oc1c(C2CCC2)ccc(-c2cnc(N)cn2)c1F` [Example 112, 3-[3-(5-Aminopyrazin-2-yl)-6-cyclobutyl-2-fluorophenoxy]pyridine-2-carbonitrile], for which the Ki on human FLAP is 14.8 nM. In test [1], the IC50 was 181 nM.
Consider `Nc1cc(Oc2c(C3CCC3)ccc(-c3cnc(N)nc3)c2F)ncn1` [Example 164, 5-{3-[(6-Aminopyrimidin-4-yl)oxy]-4-cyclobutyl-2-fluorophenyl}pyrimidin-2-amine], for which the inhibitory constant (Ki) on human FLAP was determined as 36.8 nM. Also, the IC50 in test [1] was 118 nM.
Turning to `Fc1c(-c2cnc3c(c2)OCCN3)ccc(C2CCC2)c1Oc1ncccn1` [Example 225, 7-(4-cyclobutyl-2-fluoro-3-(pyrimidin-2-yloxy)phenyl)-3,4-dihydro-2H-pyrido[3,2-b][1,4]oxazine], on human FLAP, the Ki was 2.5 nM. In addition, in test [1], the IC50 was 68.4 nM.
On to `O=C(O)c1ccc(COc2c(C3CCC3)ccc(-c3cnc4c(c3)OCCN4)c2F)cc1` [Example 196, 4-{[6-Cyclobutyl-3-(3,4-dihydro-2H-pyrido[3,2-b][1,4]oxazin-7-yl)-2-fluorophenoxy]methyl}benzoic acid], for which the Ki at human FLAP is 4.1 nM. Besides, in test [1], the IC50 was 871 nM.
Take `N#Cc1cccc(Oc2c(C3CCC3)ccc(-c3cnc(N)cn3)c2F)n1` [Example 111, 6-[3-(5-Aminopyrazin-2-yl)-6-cyclobutyl-2-fluorophenoxy]pyridine-2-carbonitrile]: on human FLAP, the Ki came to 1.9 nM. For the same compound, the IC50 in test [1] came out at 65.4 nM.
For `NC(=O)c1cccc(COc2c(C3CCC3)ccc(-c3cnc(N)cn3)c2F)c1` [Example 17, 3-{[3-(5-Aminopyrazin-2-yl)-6-cyclobutyl-2-fluorophenoxy]methyl}benzamide], the inhibition constant Ki on human FLAP came out at 16 nM. Moreover, the IC50 in test [1] came out at 276 nM.
Take `N#Cc1ccc(Oc2c(C3CCC3)ccc(-c3cnc(N)cn3)c2F)cn1` [Example 108, 5-[3-(5-Aminopyrazin-2-yl)-6-cyclobutyl-2-fluorophenoxy]pyridine-2-carbonitrile]: the Ki at human FLAP is 24.6 nM. Besides, the IC50 in test [1] was 1310 nM.
For `N#Cc1ccccc1COc1c(C2CCC2)ccc(-c2cnc(N)cn2)c1F` [Example 18, 2-{[3-(5-Aminopyrazin-2-yl)-6-cyclobutyl-2-fluorophenoxy]methyl}benzonitrile], in that order: 120 nM and 1170 nM.
As to `CS(=O)(=O)c1ccc(COc2c(C3CCC3)ccc(-c3cnc4c(c3)OCCN4)c2F)cc1` [Example 189, 7-(4-Cyclobutyl-2-fluoro-3-{[4-(methylsulfonyl)-benzyl]-oxy}-phenyl)-3,4-dihydro-2H-pyrido[3,2-b][1,4]oxazine], the inhibition constant Ki on human FLAP stood at 9.8 nM. Besides, the IC50 in test [1] was 1140 nM.
As to `Nc1cnc(-c2ccc(C3CCC3)c(OCc3ccncc3)c2F)cn1` [Example 14, 5-[4-Cyclobutyl-2-fluoro-3-(pyridin-4-ylmethoxy)phenyl]pyrazin-2-amine], the Ki at human FLAP was found to be 122 nM. Besides, the IC50 in test [1] came to 2290 nM.
For `Nc1cnc(-c2ccc(C3CCC3)c(OCc3ccccn3)c2F)cn1` [Example 24, 5-[4-Cyclobutyl-2-fluoro-3-(pyridin-2-ylmethoxy)phenyl]pyrazin-2-amine], in that order: 100 nM and over 10000 nM.
On the same counts, the results for `CC(C)(C)c1ccc(-c2cnc(N)cn2)c(F)c1Oc1nccc(N)n1` [Example 203, 2-[3-(5-Aminopyrazin-2-yl)-6-tert-butyl-2-fluorophenoxy]pyrimidin-4-amine] are 6.9 nM and 30.8 nM.
On the same counts, the results for `N#Cc1cccc(COc2c(C3CCC3)ccc(-c3cnc(N)cn3)c2F)c1` [Example 16, 3-{[3-(5-Aminopyrazin-2-yl)-6-cyclobutyl-2-fluorophenoxy]methyl}benzonitrile] are 98 nM and 467 nM.
`Nc1cnc(-c2ccc(C3CCC3)c(OCCNc3ncccn3)c2F)cn1` [Example 296, N-{2-[3-(5-Aminopyrazin-2-yl)-6-cyclobutyl-2-fluorophenoxy]ethyl}pyrimidin-2-amine trifluoroacetic acid salt]: the Ki on human FLAP worked out at 6.8 nM. The IC50 in test [1] came to 350 nM.
For `COc1cccnc1Oc1c(C2CCC2)ccc(-c2cnc(N)cn2)c1F` [Example 129, 5-{4-Cyclobutyl-2-fluoro-3-[(3-methoxypyridin-2-yl)oxy]phenyl}pyrazin-2-amine], at human FLAP, the Ki was found to be 119 nM. Also, in test [1], the IC50 worked out at 281 nM.
On the same counts, the results for `CC(C)(C)OC(=O)N1CC(COc2c(C3CCC3)ccc(-c3cnc(N)cn3)c2F)C1` [Example 246, tert-butyl-3-((3-(5-aminopyrazin-2-yl)-6-cyclobutyl-2-fluorophenoxy)-methyl)azetidine-1-carboxylate] are 98.6 nM and 1590 nM.
